The record followed here is US20180000719A1, “A SKIN LIGHTENING COMPOSITION COMPRISING NIACINAMIDE AND ILOMASTAT” (Conopco, Inc., d/b/a UNILEVER, priority 2014, published 2018).

The subject of assay [1] is primary human melanocytes. Briefly: cells. How it is done: (i) Cell Cultures: • Neonatal foreskin primary human melanocytes were procured from Life Technologies, USA. Cells were grown in Medium 254 supplemented with human melanocyte growth supplement-2 and maintained at 37° C. in a humidified incubator with 5% CO2 atmosphere. The maintenance and sub culturing of cells were carried out as per the manufacturer's instructions. Cells between passages 3-6 were used for experimentation.
(ii) Active Addition: • Cells were seeded at a density of 5×10^4/well in a 24 well plate in Melanocyte Growth Media (MGM) and incubated for 24 hrs at 37° C./5% CO2. Actives were added to cells along with relevant controls.
(iii) Cell Viability Assay • Briefly, spent media was removed and cells washed once with 0.2 ml of 1×PBS-Ca—Mg solution. Fresh 1 μM calcein-AM in PBS buffer was added to each well. Plates were incubated for 30 min. at 37° C. in a CO2 incubator. Calcein fluorescence was then measured (excitation at 490 nm and emission at 520 nm) in TECAN M1000 plate reader.
(iv) Melanin Content Assay: • After Calcein measurements, cultures were rinsed with PBS (1×) and lysed for 1 hour at 60° C. in a shaker incubator using NaOH/DMSO mix. Melanin content was measured in a Tecan plate reader (405 nm filter), corrected for cell numbers and represented as % inhibition.

The target in assay [2] is T1, Tyrosinase enzyme (Homo sapiens, UniProt P14679).
T1 construct: Primary human melanocytic lysate was used as a source of Tyrosinase enzyme; endogenous in cells; host or cells: primary human melanocytes (lysate)
T1 sequence (P14679 19-529): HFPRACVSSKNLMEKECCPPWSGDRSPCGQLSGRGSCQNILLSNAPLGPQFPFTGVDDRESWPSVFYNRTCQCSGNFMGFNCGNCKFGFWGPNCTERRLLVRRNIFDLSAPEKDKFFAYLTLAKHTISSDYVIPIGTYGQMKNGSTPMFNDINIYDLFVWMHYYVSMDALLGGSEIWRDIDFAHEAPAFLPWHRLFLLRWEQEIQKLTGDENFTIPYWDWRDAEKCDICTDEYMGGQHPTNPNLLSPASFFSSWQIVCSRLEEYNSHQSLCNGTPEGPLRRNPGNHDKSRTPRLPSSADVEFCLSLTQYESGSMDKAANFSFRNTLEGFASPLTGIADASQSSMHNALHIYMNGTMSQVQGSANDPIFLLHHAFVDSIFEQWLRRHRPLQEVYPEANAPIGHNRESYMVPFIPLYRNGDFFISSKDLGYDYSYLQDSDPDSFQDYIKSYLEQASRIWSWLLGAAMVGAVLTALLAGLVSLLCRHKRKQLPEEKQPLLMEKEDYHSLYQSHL
Briefly: In vitro human tyrosinase activity assay (melanocytic lysate). It is filed as biochemical. The protocol: (v) In Vitro Human Tyrosinase Activity Assay: • Primary human melanocytic lysate was used as a source of Tyrosinase enzyme. Human melanocytic lysate and test actives (at different concentrations) were incubated together for 15 mins, prior to addition of Tyrosine/DOPA substrate mix. Assay plate was then incubated at 37° C. for ˜14-16 hrs. Optical Density was measured at 405 nm and % Inhibition calculated.

[3] abbreviates: Homo sapiens, Melanocyte, 72 h, read-out: Average % inhibition in cellular melanin.

The structures appear in SMILES notation.

As for `CNC(=O)[C@H](Cc1c[nH]c2ccccc12)NC(=O)[C@@H](CC(=O)NO)CC(C)C` [Galardin, (R)—N4-Hydroxy-N1-[(S)-2-(1H-indol-3-yl)-1-methylcarbamoyl-ethyl]-2-isobutyl-succinamide], the inhibition at 1 µM in assay [1] (setting [3]) worked out at 6%. In addition, in assay [1] (setting [3]), the inhibition at 10 µM was found to be 17%. Moreover, the “reduction of melanin content in primary human melanocytes (in words)” value in assay [1] (galardin by itself at 1 μM) was “no reduction”; in assay [1] (galardin by itself at 10 μM) it was “modest reduction”.
`NC(=O)c1cccnc1` [Niacinamide, pyridine-3-carboxamide]: the results for the inhibition at 1000 µM in assay [1] (setting [3]) and in assay [2] (1 mM Niacinamide) were -7% and 4%, respectively. In addition, the inhibition at 10000 µM in assay [1] (setting [3]) is 16%; in assay [2] (10 mM Niacinamide) it was -8%. In assay [2] (0.01 mM Niacinamide), the inhibition at 10 µM amounted to 2%. The inhibition at 100 µM in assay [2] (0.1 mM Niacinamide) was 2%. For the same compound, the inhibition at 50000 µM in assay [2] (50 mM Niacinamide) is -20%.
